# From patent US12180191B1, “2-[(1H-benzimidazol-2-yl)imino]-5,5-diphenylimidazolidin-4-one as an antimicrobial compound” (KING FAISAL UNIVERSITY, priority 2023, dated 2024)
# Assays:
# Assay type in all cases: cell-based
# [1] = system: Chrysosporium keratinophilum; assay: Agar plate disc-diffusion, antifungal inhibition zone; conditions: Sabouraud's dextrose agar, 72 hours
# Method: (§1) The agar plate disc-diffusion method was applied. […] The discs were then placed onto the surface of agar plates (nutrient agar for bacteria and Sabouraud's dextrose agar for fungi) seeded with the test organism. Each plate contained 15 mL of the agar medium, previously seeded with 0.2 mL of the broth culture of each organism pregrown for 18 hours. The plates were incubated at 37° C. for 48 hours, and 72 hours for fungi. The inhibition zones were measured in millimeter. Discs impregnated with DMSO were used as a control, and its inhibition zone was subtracted from the tested compound actual inhibition zone.
# (§2) The results of the antimicrobial testing can be observed in Tables 1 and 2, below, with ciprofloxacin serving as a reference.
# Staphylococcus aureus = assay: Agar plate disc-diffusion, antibacterial inhibition zone; conditions: nutrient agar, 37° C., 48 hours
# Method: (§3) The agar plate disc-diffusion method was applied. Sterilized filter papers (6 mm in diameter) were wetted with 10 μL of a solution of 2-[(1H-benzimidazol-2-yl)imino]-5,5-diphenylimidazolidin-4-one (3) to be tested, containing 10 mg/mL in DMSO, and the discs were allowed to air dry. The discs were then placed onto the surface of agar plates (nutrient agar for bacteria and Sabouraud's dextrose agar for fungi) seeded with the test organism. Each plate contained 15 mL of the agar medium, previously seeded with 0.2 mL of the broth culture of each organism pregrown for 18 hours. The plates were incubated at 37° C. for 48 hours, and 72 hours for fungi. The inhibition zones were measured in millimeter. Discs impregnated with DMSO were used as a control, and its inhibition zone was subtracted from the tested compound actual inhibition zone.
# as §2
# Bacillus cereus = assay: as above; conditions: nutrient agar, 37° C., 48 hours
# Method: as §1, §2
# Escherichia coli = assay: as above; conditions: nutrient agar, 37° C., 48 hours
# Method: as §1, §2
# Pseudomonas aeruginosa = assay: as above; conditions: nutrient agar, 37° C., 48 hours
# Method: as §1, §2
# Aspergillus flavus = assay: Agar plate disc-diffusion, antifungal inhibition zone; conditions: Sabouraud's dextrose agar, 72 hours
# Method: as §3, §2
# [2] = A = concentration of comp. = 10,000 μL
# [3] = B = concentration of comp. = 30.000 μL
# [4] = C = concentration of comp. = 50,000 μL
Compound,"inhibition zone, Chrysosporium keratinophilum [1, 2] [millimeter]","inhibition zone, Chrysosporium keratinophilum [1, 3] [millimeter]","inhibition zone, Chrysosporium keratinophilum [1, 4] [millimeter]","inhibition zone, Staphylococcus aureus (Staphylococcus aureus; [2]) [millimeter]","inhibition zone, Staphylococcus aureus (Staphylococcus aureus; [3]) [millimeter]","inhibition zone, Staphylococcus aureus (Staphylococcus aureus; [4]) [millimeter]","inhibition zone, Bacillus Cereus (Bacillus cereus; [2]) [millimeter]","inhibition zone, Bacillus Cereus (Bacillus cereus; [3]) [millimeter]","inhibition zone, Bacillus Cereus (Bacillus cereus; [4]) [millimeter]","inhibition zone, Escherichia coli (Escherichia coli; [2]) [millimeter]","inhibition zone, Escherichia coli (Escherichia coli; [3]) [millimeter]","inhibition zone, Escherichia coli (Escherichia coli; [4]) [millimeter]","inhibition zone, Pseudomonas aeruginosa (Pseudomonas aeruginosa; [2]) [millimeter]","inhibition zone, Pseudomonas aeruginosa (Pseudomonas aeruginosa; [3]) [millimeter]","inhibition zone, Pseudomonas aeruginosa (Pseudomonas aeruginosa; [4]) [millimeter]","inhibition zone, Aspergillus flavus (Aspergillus flavus; [2]) [millimeter]","inhibition zone, Aspergillus flavus (Aspergillus flavus; [3]) [millimeter]","inhibition zone, Aspergillus flavus (Aspergillus flavus; [4]) [millimeter]"
"O=C(O)c1cn(C2CC2)c2cc(N3CCNCC3)c(F)cc2c1=O [Cip., ciprofloxacin]",29,30,53,42,44,53,29,31,42,30,39,60,29,30,53,29,30,42
"O=C1N/C(=N/c2nc3ccccc3[nH]2)NC1(c1ccccc1)c1ccccc1 [Compound 3, 2-[(1H-benzimidazol-2-yl)imino]-5,5-diphenylimidazolidin-4-one]",24,29,49,16,20,30,18,24,38,27,36,50,25,32,43,18,23,35
